Data reported in ChEMBL document CHEMBL3400056, “Novel thiazolo[3,2-b]-1,2,4-triazoles derived from naproxen with analgesic/anti-inflammatory properties: Synthesis, biological evaluation and molecular modeling studies” (Bioorg Med Chem, 2015).

Columns and labels:
Mus musculus [1] = test: Antiinflammatory activity in Swiss albino mouse assessed as inhibition of carrageenan-induced paw edema at 100 mg/kg, po administered 1 hr prior to carrageenan challenge measured after 2 hrs relative to control; assay type: functional; design: scale not given: the % may be the effect or the level left
Mus musculus [2] = test: Gastrointestinal toxicity in Swiss albino mouse assessed as ulcer index at 100 mg/kg, po measured after 2 hrs; assay type: organism-based; design: dose 100 mg/kg, route oral; details: in vivo
Mus musculus [3] = test: Gastrointestinal toxicity in Swiss albino mouse assessed as ulcer index at 50 mg/kg, po measured after 2 hrs; assay type: organism-based; design: dose 50 mg/kg, route oral; details: in vivo
Mus musculus [4] = test: Acute toxicity in Swiss albino mouse assessed as weight loss at 50 to 100 mg/kg, po measured up to 14 days; assay type: organism-based; design: dose 50-100 mg/kg, route oral; details: in vivo, 336 h
Mus musculus [5] = test: Analgesic activity in Swiss albino mouse assessed as time of licking paws at 100 mg/kg, po measured after 2 hrs by tail flick test relative to control; assay type: functional
Mus musculus [6] = test: Acute toxicity in Swiss albino mouse assessed as mortality at 50 to 100 mg/kg, po measured after 6 hrs to 14 days; assay type: organism-based; design: dose 50-100 mg/kg, route oral; details: in vivo
Mus musculus [7] = test: Analgesic activity in Swiss albino mouse assessed as latancy of withdrawing tail at 50 mg/kg, po measured after 2 hrs by tail flick test relative to control; assay type: functional
Mus musculus [8] = test: Analgesic activity in Swiss albino mouse assessed as latancy of withdrawing tail at 100 mg/kg, po measured after 2 hrs by tail flick test relative to control; assay type: functional
Mus musculus [9] = test: Acute toxicity in Swiss albino mouse assessed as behavioral changes at 50 to 100 mg/kg, po measured up to 14 days; assay type: organism-based; design: dose 50-100 mg/kg, route oral; details: in vivo, 336 h
Mus musculus [10] = test: Analgesic activity in Swiss albino mouse assessed as time of licking paws at 50 mg/kg, po measured after 2 hrs by tail flick test relative to control; assay type: functional
Mus musculus [11] = test: Antiinflammatory activity in Swiss albino mouse assessed as inhibition of carrageenan-induced paw edema at 50 mg/kg, po administered 1 hr prior to carrageenan challenge measured after 2 hrs relative to control; assay type: functional; design: scale not given: the % may be the effect or the level left

## COc1ccc2cc(C(C)c3n[nH]c(=S)[nH]3)ccc2c1 (stereo not given)
Mus musculus [1]
  Activity: 21.3%
Mus musculus [2]
  UI: 2.3
Mus musculus [3]
  UI: 2.1
Mus musculus [4]
  Activity: Non-toxic
Mus musculus [5]
  MPE: 8.2%
Mus musculus [6]
  Activity: Non-toxic
Mus musculus [7]
  MPE: 16.8%
Mus musculus [8]
  MPE: 22.2%
Mus musculus [9]
  Activity: Non-toxic
Mus musculus [10]
  MPE: 18.7%
Mus musculus [11]
  Activity: 30.1%

## COc1ccc2c3c1O[C@H]1C(=O)CC[C@@]4(O)[C@@H](C2)N(C)CC[C@]314 [OXYCODONE]
Mus musculus [1]
  Activity: 3.9%
Mus musculus [2]
  UI: 1.5
Mus musculus [3]
  UI: 1.5
Mus musculus [5]
  MPE: 52.9%
Mus musculus [7]
  MPE: 63.3%
Mus musculus [8]
  MPE: 66.9%
Mus musculus [10]
  MPE: 52.9%
Mus musculus [11]
  Activity: 0.9%

## COc1ccc2cc(C(C)c3nc4s/c(=C\c5ccccc5OCc5ccccc5)c(=O)n4n3)ccc2c1 (stereo not given)
Mus musculus [1]
  Activity: 33.9%
Mus musculus [2]
  UI: 2.6
Mus musculus [3]
  UI: 2.4
Mus musculus [4]
  Activity: Non-toxic
Mus musculus [5]
  MPE: 25.2%
Mus musculus [6]
  Activity: Non-toxic
Mus musculus [7]
  MPE: 18.9%
Mus musculus [8]
  MPE: 18%
Mus musculus [9]
  Activity: Non-toxic
Mus musculus [10]
  MPE: 17.7%
Mus musculus [11]
  Activity: 43%

## COc1ccc2cc(C(C)c3nc4s/c(=C\C=C\c5ccccc5)c(=O)n4n3)ccc2c1 (stereo not given)
Mus musculus [1]
  Activity: 37%
Mus musculus [2]
  UI: 3.2
Mus musculus [3]
  UI: 2.4
Mus musculus [4]
  Activity: Non-toxic
Mus musculus [5]
  MPE: 24.8%
Mus musculus [6]
  Activity: Non-toxic
Mus musculus [7]
  MPE: 28.4%
Mus musculus [8]
  MPE: 30.9%
Mus musculus [9]
  Activity: Non-toxic
Mus musculus [10]
  MPE: 15.8%
Mus musculus [11]
  Activity: 36.2%

## COc1ccc2cc(C(C)c3nc4s/c(=C\c5sccc5C)c(=O)n4n3)ccc2c1 (stereo not given)
Mus musculus [1]
  Activity: 19.7%
Mus musculus [2]
  UI: 2.7
Mus musculus [3]
  UI: 2.6
Mus musculus [4]
  Activity: Non-toxic
Mus musculus [5]
  MPE: 18.3%
Mus musculus [6]
  Activity: Non-toxic
Mus musculus [7]
  MPE: 15.2%
Mus musculus [8]
  MPE: 10.2%
Mus musculus [9]
  Activity: Non-toxic
Mus musculus [10]
  MPE: 13.5%
Mus musculus [11]
  Activity: 22.5%

## COc1ccc2cc(C(C)c3nc4s/c(=C\c5cccc(OCc6ccccc6)c5)c(=O)n4n3)ccc2c1 (stereo not given)
Mus musculus [1]
  Activity: 34.4%
Mus musculus [2]
  UI: 2.9
Mus musculus [3]
  UI: 2.9
Mus musculus [4]
  Activity: Non-toxic
Mus musculus [5]
  MPE: 19.2%
Mus musculus [6]
  Activity: Non-toxic
Mus musculus [7]
  MPE: 24.8%
Mus musculus [8]
  MPE: 22.3%
Mus musculus [9]
  Activity: Non-toxic
Mus musculus [10]
  MPE: 21.5%
Mus musculus [11]
  Activity: 37.9%

## COc1ccc2cc(C(C)c3nc4s/c(=C\c5cn(C(C)=O)c6ccccc56)c(=O)n4n3)ccc2c1 (stereo not given)
Mus musculus [1]
  Activity: 43.3%
Mus musculus [2]
  UI: 2.4
Mus musculus [3]
  UI: 2.7
Mus musculus [4]
  Activity: Non-toxic
Mus musculus [5]
  MPE: 18.7%
Mus musculus [6]
  Activity: Non-toxic
Mus musculus [7]
  MPE: 30.8%
Mus musculus [8]
  MPE: 28.3%
Mus musculus [9]
  Activity: Non-toxic
Mus musculus [10]
  MPE: 17.5%
Mus musculus [11]
  Activity: 37.7%

## COc1ccc2cc(C(C)c3nc4s/c(=C\c5ccc(OC(C)=O)cc5)c(=O)n4n3)ccc2c1 (stereo not given)
Mus musculus [1]
  Activity: 33.6%
Mus musculus [2]
  UI: 2.7
Mus musculus [3]
  UI: 2.9
Mus musculus [4]
  Activity: Non-toxic
Mus musculus [5]
  MPE: 19.9%
Mus musculus [6]
  Activity: Non-toxic
Mus musculus [7]
  MPE: 23.3%
Mus musculus [8]
  MPE: 18.2%
Mus musculus [9]
  Activity: Non-toxic
Mus musculus [10]
  MPE: 24.9%
Mus musculus [11]
  Activity: 36.2%
